# Measurements taken from article PMC4596473 (PLoS ONE, 2015).
# Entries after “also recorded” stand apart in the source; their conditions may differ. Like-named read-outs stand apart in the source and are kept apart here.
# Columns and labels:
# [1] = system: healthy Japanese subjects; assay: Thorough QT/QTc study: 12-lead ECG assessment of QTcF/QTcB; format: in vivo, human; details: for Upper bound of the 90% two-sided CI of the least squares mean ΔΔQTcB: all time points, data not shown; for Upper bound of the 90% two-sided CI for the least squares mean ΔΔQTcF: single dose, all time points 0.5-24 h post-dose; for Least squares mean ΔΔQTcF: moxifloxacin 400 mg single dose
# Method: The study was conducted at Kitasato Institute Hospital (Tokyo, Japan) from July 6th 2011 to September 15th 2011. […] All treatments were administered with 200 mL of water after at least 10-hour overnight fast, and no food was allowed until 4 hours after dosing. All treatments were administered in a randomized sequence. The random assignment manager randomly assigned treatment groups using the Williams Design to determine the order of treatments within each treatment sequence by the time of study drug administration to the first admission group. A randomization code was created for each treatment sequence sealed and securely retained until unblinding and were provided to the sponsor after unblinding.
# Serial triplicate digital 12-lead electrocardiograms (ECGs) were recorded over 5 min in the supine position after resting for 10 min for each time point (pre-dose [50–70 min before dosing], 0.5, 1, 2, 3, 4, 6, 8, and 24 h post-dose) using an electrocardiograph (ELI250, Mortara). The same model of 12-lead digital surface ECG monitor was employed for all subjects at all time points. The same lead was used throughout the study. The interval between the start of each recording was ≥1 min, and ECG was recorded for 10 s for each chart. All 12-lead ECG charts for QT/QTc analysis were sent electronically to the central ECG analysis facility. RR and QT intervals were measured in accordance with the procedures of the facility. The time of recording and subject identification information were blinded before measurement. QTc intervals were corrected by Fridericia’s (QTcF = QT/RR^1/3) and Bazett’s (QTcB = QT/RR^1/2) formulae. QTcF was the primary endpoint, and QTcB was the secondary endpoint.
# Treatment comparisons between luseogliflozin therapeutic dose or supratherapeutic dose and placebo (ΔΔQTc) were analyzed using a linear mixed model with treatment, sequence, period, scheduled time, and the interaction of treatment with scheduled time as fixed effects, subject as a random effect, and baseline QTc as a covariate. The effect of luseogliflozin on QT/QTc interval prolongation was regarded as negative when the upper bound of the 90% two-sided confidence interval (CI) for the mean effect on the QT/QTc interval […] 10 ms at all time points in the luseogliflozin groups.
# A categorical analysis was also performed. New onset of QTc greater than 450, 480, or 500 ms after dosing or change from baseline in QTc greater than 30 or 60 ms was categorized in each treatment group.
# [2] = system: healthy Japanese subjects; assay: Safety assessment (adverse events, vital signs, ECG, laboratory tests); format: in vivo, human; details: for Tolerability: single dose of luseogliflozin 5 mg and 20 mg
# Description: Safety assessments included recording of adverse events, vital signs (body temperature, blood pressure, and pulse rate), physical examinations, ECGs, and clinical laboratory tests.
# [3] = system: human ether-a-go-go-related gene (hERG) current; assay: hERG current in hERG-transfected HEK293 cells in vitro; format: cell-based; details: versus Cmax of a 5 mg dose in diabetic subjects in a clinical study
# Description: In non-clinical studies, effects of luseogliflozin on the cardiovascular system were investigated via the human ether-a-go-go-related gene (hERG) current in hERG-transfected human embryonic kidney cells (HEK293 cells) in vitro; action potential in the papillary muscle of anesthetized guinea pigs; and blood pressure, heart rate, and electrocardiogram (ECG) in conscious beagle dogs.
# [4] = human, in vivo, po
# Method: (§1) The plasma concentrations of luseogliflozin and its metabolites were determined by two separate methods at JCL Bioassay Corp. (Hyogo, Japan). Luseogliflozin, its metabolites and its deuterium-labeled internal standard (luseogliflozin-d5, M2-d5 and M17-d5, Taisho Pharmaceutical Co. Ltd., Japan) were extracted from plasma by solid phase extraction. Extracts were analysed by LC-MS/MS. The lower limit of quantification (LLOQ) for luseogliflozin and its metabolites (M2 and M17) in plasma were 0.05 and 0.1 ng/mL, respectively. […] Extracts were analysed by LC-MS/MS. […] Summary statistics were provided for the pharmacokinetic parameters by treatment group.
# [5] = system: human ether-a-go-go-related gene (hERG) current; details: at 9.6 μmol/L; non-clinical study; cited from earlier work
# [6] = system: papillary muscle of anesthetized guinea pigs; details: non-clinical study; cited from earlier work
# conscious beagle dogs = details: non-clinical study; cited from earlier work
# [7] = cited from earlier work
# [8] = system: Japanese patients with type 2 diabetes mellitus; details: cited from earlier work
# SGLT2 = details: read-out: 50% inhibitory concentration (IC50); SGLT2, human expressing cells, nonclinical study; cited from earlier work
# SGLT1 = details: read-out: 50% inhibitory concentration (IC50); SGLT1, human expressing cells, nonclinical study; cited from earlier work
# rats = details: 26-week repeated dose; cited from earlier work
# dogs = details: 52-week repeated dose; cited from earlier work
# clinical = details: human, in vivo, po
# Method: as §1
# [9] = luseogliflozin 20 mg (supratherapeutic dose)
# [10] = TS-071 25 mg single oral dose, healthy adult males, ref Investigator's Brochure of TS-071 (Version 6)
smiles,measurement,setting,value
"CCOc1ccc(Cc2cc([C@@H]3S[C@H](CO)[C@@H](O)[C@H](O)[C@H]3O)c(OC)cc2C)cc1 [Luseogliflozin, (1S)-1,5-anhydro-1-[5-(4-ethoxybenzyl)-2-methoxy-4-methylphenyl]-1-thio-D-glucitol]",Upper bound of the 90% two-sided CI of the least squares mean ΔΔQTcB,[1]; luseogliflozin 5 mg (anticipated therapeutic dose),< 10 ms
same,Upper bound of the 90% two-sided CI for the least squares mean ΔΔQTcF,[1]; luseogliflozin 5 mg (therapeutic dose),less than 10 ms
same,Correlation between ΔΔQTcF and plasma concentration of unchanged compound,[1]; luseogliflozin 5 mg and 20 mg,No meaningful correlation; also recorded: no relationship
same,Hysteresis of mean ΔΔQTcF versus mean plasma concentration,[1]; luseogliflozin 5 mg and 20 mg,no clear hysteresis effect
same,"Number (%) of Subjects, QTcF Increase >30 ms from baseline","[1]; luseogliflozin 5 mg, n = 56",0 (0.0) n (%)
same,"Number (%) of Subjects, QTcF Increase >60 ms from baseline","[1]; luseogliflozin 5 mg, n = 56",0 (0.0) n (%)
same,"Number (%) of Subjects, QTcF Value >450 ms","[1]; luseogliflozin 5 mg, n = 56",1 (1.8) n (%)
same,"Number (%) of Subjects, QTcF Value >480 ms","[1]; luseogliflozin 5 mg, n = 56",0 (0.0) n (%)
same,"Number (%) of Subjects, QTcF Value >500 ms","[1]; luseogliflozin 5 mg, n = 56",0 (0.0) n (%)
same,Upper bound of the 90% two-sided CI for the least squares mean ΔΔQTcF,[1]; [9],less than 10 ms
same,Upper bound of the 90% two-sided CI of the least squares mean ΔΔQTcB,[1]; [9],< 10 ms
same,"Number (%) of Subjects, QTcF Increase >30 ms from baseline","[1]; luseogliflozin 20 mg, n = 53",0 (0.0) n (%)
same,"Number (%) of Subjects, QTcF Increase >60 ms from baseline","[1]; luseogliflozin 20 mg, n = 53",0 (0.0) n (%)
same,"Number (%) of Subjects, QTcF Value >450 ms","[1]; luseogliflozin 20 mg, n = 53",0 (0.0) n (%)
same,"Number (%) of Subjects, QTcF Value >480 ms","[1]; luseogliflozin 20 mg, n = 53",0 (0.0) n (%)
same,"Number (%) of Subjects, QTcF Value >500 ms","[1]; luseogliflozin 20 mg, n = 53",0 (0.0) n (%)
same,"Adverse events moderate in severity, number of events",[2]; 5 mg luseogliflozin group,two
same,Subjects with first-degree atrioventricular block,[2]; 5 mg luseogliflozin group,one
same,Prolonged PR interval in the subject with first-degree atrioventricular block,"[2]; 48 h after administration of luseogliflozin 5 mg, one subject",452 ms
same,Relation of cardiovascular adverse events to the study drug,[2]; after administration of luseogliflozin,not related to the study drug
same,Percentage of subjects with an adverse event,[2]; luseogliflozin 5 mg group,41.1%
same,"AEs, n (number of events)","[2]; luseogliflozin 5 mg, n = 56",48 n
same,"Drug-related AEs, n (number of events)","[2]; luseogliflozin 5 mg, n = 56",20 n
same,Percentage of subjects with an adverse event,[2]; luseogliflozin 20 mg group,35.8%
same,"AEs, n (number of events)","[2]; luseogliflozin 20 mg, n = 53",32 n
same,"Drug-related AEs, n (number of events)","[2]; luseogliflozin 20 mg, n = 53",16 n
same,Tolerability,[2],well tolerated
same,Tolerability,[2]; listed as luseogliflozin,safe and well tolerated
same,Ratio of hERG test concentration (9.6 μmol/L) to the maximum observed Cmax,[3],approximately 370 times
same,Tmax,[4]; 5 mg,1.34 ± 0.935 h
same,T1/2,[4]; 20 mg,9.90 ± 1.22 h
same,Suppression of hERG current,[5],7.7%
same,Effect on the cardiovascular system,[6],No effect
same,Effect on the cardiovascular system,conscious beagle dogs,No effect
same,Mean Tmax,"[7]; TS-071 15 mg single oral dose, healthy adult males, ref Investigator's Brochure of TS-071 (Version 6)",1.56 h
same,Mean T1/2,[7]; [10],12.6 h
same,Mean Tmax,[7]; [10],2.25 h
same,Time to maximum plasma concentration (Tmax),[7]; single dose 1–25 mg,≤ 2.25 h
same,Urinary glucose excretion in comparison to placebo,"[8]; 0.5, 1, 2.5 and 5 mg/day, Japanese patients with type 2 diabetes mellitus",significantly increased
same,Observed Cmax of unchanged TS-071,"[8]; Day 7, 7-day repeated administration of 5 mg, patients with type 2 diabetes",299 ng/mL
same,IC50,SGLT2,2.26 nM
same,IC50,SGLT1,2900 nM
same,Dose levels with diarrhoea or soft stools,rats,≥ 100 mg/kg
same,No observed adverse effect level,rats,4 mg/kg
same,Dose levels with diarrhoea or soft stools,dogs,≥ 10 mg/kg
same,No observed adverse effect level,dogs,2 mg/kg
same,AUC(0-inf),clinical; 5 mg,2110 ± 418 ng·h/mL
same,Cmax,clinical; 5 mg,209 ± 48.9 ng/mL
same,half-life,clinical; 5 mg,10 ± 1.18 h
same,Tmax,clinical; 5 mg,1.3 h
same,AUC(0-inf),clinical; 20 mg,8650 ± 1780 ng·h/mL
same,Cmax,clinical; 20 mg,787 ± 186 ng/mL
same,Tmax,clinical; 20 mg,1.5 ± 0.961 h
COc1cc(C)c(Cc2ccc(O)cc2)cc1[C@@H]1S[C@H](CO)[C@@H](O)[C@H](O)[C@H]1O [M2],AUCinf,[4]; 5 mg,257 ± 48.3 ng·h/mL
same,Cmax,[4]; 5 mg,8.85 ± 1.95 ng/mL
same,T1/2,[4]; 5 mg,13.8 ± 2.61 h
same,Tmax,[4]; 5 mg,5.71 ± 2.14 h
same,AUCinf,[4]; 20 mg,1030 ± 212 ng·h/mL
same,Cmax,[4]; 20 mg,35.1 ± 7.36 ng/mL
same,T1/2,[4]; 20 mg,13.9 ± 2.53 h
same,Tmax,[4]; 20 mg,5.83 ± 1.90 h
COc1cc(C)c(Cc2ccc(OCC(=O)O)cc2)cc1[C@@H]1S[C@H](CO)[C@@H](O)[C@H](O)[C@H]1O [M17],AUCinf,[4]; 5 mg,120 ± 41.9 ng·h/mL
same,Cmax,[4]; 5 mg,6.02 ± 2.10 ng/mL
same,T1/2,[4]; 5 mg,10.9 ± 1.49 h
same,Tmax,[4]; 5 mg,4.89 ± 1.14 h
same,AUCinf,[4]; 20 mg,487 ± 196 ng·h/mL
same,Cmax,[4]; 20 mg,24.3 ± 9.98 ng/mL
same,T1/2,[4]; 20 mg,10.9 ± 1.71 h
same,Tmax,[4]; 20 mg,5.13 ± 1.14 h
"COc1c(N2C[C@@H]3CCCN[C@@H]3C2)c(F)cc2c(=O)c(C(=O)O)cn(C3CC3)c12 [Moxifloxacin, moxifloxacin, reference compound]",Correlation between ΔΔQTcF and plasma concentration of unchanged compound,[1]; moxifloxacin 400 mg,positive relationship; also recorded: positive correlation
same,Hysteresis of mean ΔΔQTcF versus mean plasma concentration,[1]; moxifloxacin 400 mg,counter-clockwise hysteresis effect; also recorded: counterclockwise hysteresis
same,Least squares mean ΔΔQTcF,[1]; 3 and 4 hour post-dose,13.4 ms
same,Least squares mean ΔΔQTcF,[1]; 24 h post-dose,7.7 ms
same,"Number (%) of Subjects, QTcF Increase >30 ms from baseline","[1]; moxifloxacin 400 mg, n = 54",0 (0.0) n (%)
same,"Number (%) of Subjects, QTcF Increase >60 ms from baseline","[1]; moxifloxacin 400 mg, n = 54",0 (0.0) n (%)
same,"Number (%) of Subjects, QTcF Value >450 ms","[1]; moxifloxacin 400 mg, n = 54",7 (13.0) n (%)
same,"Number (%) of Subjects, QTcF Value >480 ms","[1]; moxifloxacin 400 mg, n = 54",0 (0.0) n (%)
same,"Number (%) of Subjects, QTcF Value >500 ms","[1]; moxifloxacin 400 mg, n = 54",0 (0.0) n (%)
same,"Number (%) of Subjects, QTcF Value >450 ms","[1]; moxifloxacin 400 mg, n = 54, listed as moxifloxacin",7 n (%)
same,Regression of ΔΔQTcF (msec) on plasma concentration (μg/mL),"[1]; moxifloxacin 400 mg, text in Fig 6",ΔΔQTcF = 3.42+3.03xConc.
same,Percentage of subjects with an adverse event,[2]; moxifloxacin 400 mg group,72.2%
same,"AEs, n (number of events)","[2]; moxifloxacin 400 mg, n = 54",56 n
same,"Drug-related AEs, n (number of events)","[2]; moxifloxacin 400 mg, n = 54",36 n
same,Tmax,[4]; 400 mg,2.19 ± 1.09 h
same,AUC(0-inf),clinical; 400 mg,60000 ± 11100 ng·h/mL
same,Cmax,clinical; 400 mg,3880 ± 939 ng/mL
same,Tmax,clinical; 400 mg,2.2 h
